Test results from patent US6737383B1, “Herbicidal oxadiazolidines” (priority 1999, dated 2004).

How the values were obtained:
corn = assay: Test B pre/postemergence corn; assay type: in vivo, Zea mays
Method in brief: (§1)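 Response is a visual 0-to-10 score relative to untreated plants, where 0 means no effect and 10 means complete control, taken twelve to sixteen days after application. Treatments went onto soil at planting and onto foliage of 1- to 4-leaf plants, using a surfactant-containing non-phytotoxic solvent.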

morningglory = assay: Test B pre/postemergence morningglory; assay type: in vivo, Ipomoea hederacea
Method in brief: as §1

wild oat = assay: Test B pre/postemergence wild oat; assay type: in vivo, Avena fatua
Method in brief: as §1

soybean = assay: Test B pre/postemergence soybean; assay type: in vivo, Glycine max
Method in brief: as §1

wheat = assay: Test B pre/postemergence wheat; assay type: in vivo, Triticum aestivum
Method in brief: as §1

rape = assay: Test B pre/postemergence rape; assay type: in vivo, Brassica napus
Method in brief: as §1

giant foxtail = assay: Test B pre/postemergence giant foxtail; assay type: in vivo, Setaria faberii
Method in brief: as §1

pigweed = assay: Test B pre/postemergence pigweed; assay type: in vivo, Amaranthus retroflexus
Method in brief: as §1

crabgrass = assay: Test B pre/postemergence crabgrass; assay type: in vivo, Digitaria sanguinalis
Method in brief: as §1

surinam grass = assay: Test B pre/postemergence surinam grass; assay type: in vivo, Brachiaria decumbens
Method in brief: as §1

blackgrass = assay: Test B pre/postemergence blackgrass; assay type: in vivo, Alopecurus myosuroides
Method in brief: as §1

sugar beet = assay: Test B pre/postemergence sugar beet; assay type: in vivo, Beta vulgaris
Method in brief: as §1

bedstraw = assay: Test B pre/postemergence bedstraw; assay type: in vivo, Galium aparine
Method in brief: as §1

purple nutsedge = assay: Test B pre/postemergence purple nutsedge; assay type: in vivo, Cyperus rotundus
Method in brief: as §1

velvetleaf = assay: Test B pre/postemergence velvetleaf; assay type: in vivo, Abutilon theophrasti
Method in brief: as §1

cocklebur = assay: Test B pre/postemergence cocklebur; assay type: in vivo, Xanthium strumarium
Method in brief: as §1

[1] = Preemergence, Rate 62 g/ha, scale of 0 to 10 where 0 is no effect and 10 is complete control
[2] = Preemergence, Rate 125 g/ha, scale 0 to 10, 0 is no effect, 10 is complete control
[3] = Preemergence, Rate 500 g/ha, scale of 0 to 10 where 0 is no effect and 10 is complete control
[4] = Preemergence, Rate 250 g/ha, scale 0 to 10, 0 is no effect, 10 is complete control
[5] = Preemergence, Rate 500 g/ha, scale 0 to 10, 0 is no effect, 10 is complete control
[6] = Postemergence, Rate 62 g/ha, scale 0 to 10, 0 is no effect, 10 is complete control
[7] = Postemergence, Rate 125 g/ha, scale of 0 to 10 where 0 is no effect and 10 is complete control
[8] = Postemergence, Rate 500 g/ha, scale 0 (no effect) to 10 (complete control)
[9] = Preemergence, Rate 250 g/ha, scale 0 (no effect) to 10 (complete control)
[10] = Rate 62 g/ha, Preemergence, scale 0 to 10
[11] = Rate 125 g/ha, Preemergence, scale 0 to 10 (0 no effect, 10 complete control)
[12] = Rate 250 g/ha, Postemergence, scale 0 to 10, 0 is no effect, 10 is complete control
[13] = Rate 500 g/ha, Preemergence, scale 0 to 10 (0 no effect, 10 complete control)

For `COCn1c(=O)on(C(=O)N(c2ccc(F)cc2F)C(C)C)c1=O` [Compound 503], the “Plant response rating, Corn” value (corn; [1]) was 3, the “Corn plant response rating” value (corn; [2]) was 5 and the “Corn plant response rating” value (corn; [3]) was 9. The “Plant response rating, Morningglory” value (morningglory; [1]) was 2, the “Morningglory plant response rating” value (morningglory; [2]) was 2 and the “Morningglory plant response rating” value (morningglory; [3]) was 7. For the same compound, the “Plant response rating, Wild oats” value (wild oat; [1]) was 6, the “Wild oats plant response rating” value (wild oat; [2]) was 10 and the “Wild oats plant response rating” value (wild oat; [3]) was 9. For the same compound, the “Plant response rating, Soybean” value (soybean; [1]) was 2, the “Soybean plant response rating” value (soybean; [2]) was 3 and the “Soybean plant response rating” value (soybean; [3]) was 7. The “Plant response rating, Wheat” value (wheat; [1]) was 0, the “Wheat plant response rating” value (wheat; [2]) was 2 and the “Wheat plant response rating” value (wheat; [3]) was 8. For the same compound, the “Plant response rating, Rape” value (rape; [1]) was 4, the “Rape plant response rating” value (rape; [2]) was 8 and the “Rape plant response rating” value (rape; [3]) was 9. The “Plant response rating, Giant foxtail” value (giant foxtail; [1]) was 9, the “Giant foxtail plant response rating” value (giant foxtail; [2]) was 9 and the “Giant foxtail plant response rating” value (giant foxtail; [3]) was 10. For the same compound, the “Plant response rating, Redroot pigweed” value (pigweed; [1]) was 8, the “Redroot pigweed plant response rating” value (pigweed; [2]) was 10 and the “Redroot pigweed plant response rating” value (pigweed; [3]) was 10. For the same compound, the “Plant response rating, Crabgrass” value (crabgrass; [1]) was 8, the “Crabgrass plant response rating” value (crabgrass; [2]) was 8 and the “Crabgrass plant response rating” value (crabgrass; [3]) was 9. The “Plant response rating, B. signalgrass” value (surinam grass; [1]) was 6, the “B. signalgrass plant response rating” value (surinam grass; [2]) was 8 and the “B. signalgrass plant response rating” value (surinam grass; [4]) was 8. The “B. signalgrass plant response rating” value (surinam grass; [5]) was 9, the “Plant response rating, Blackgrass” value (blackgrass; [1]) was 10 and the “Blackgrass plant response rating” value (blackgrass; [2]) was 9. The “Blackgrass plant response rating” value (blackgrass; [4]) was 9, the “Blackgrass plant response rating” value (blackgrass; [3]) was 10 and the “Plant response rating, Sugarbeets” value (sugar beet; [1]) was 2. The “Sugarbeets plant response rating” value (sugar beet; [2]) was 6, the “Sugarbeets plant response rating” value (sugar beet; [3]) was 9 and the “Plant response rating, Bedstraw” value (bedstraw; [1]) was 5. For the same compound, the “Bedstraw plant response rating” value (bedstraw; [2]) was 5, the “Bedstraw plant response rating” value (bedstraw; [4]) was 6 and the “Bedstraw plant response rating” value (bedstraw; [5]) was 10. The “Plant response rating, Nutsedge” value (purple nutsedge; [1]) was 0, the “Nutsedge plant response rating” value (purple nutsedge; [2]) was 0 and the “Nutsedge plant response rating” value (purple nutsedge; [3]) was 2. The “Plant response rating, Velvetleaf” value (velvetleaf; [1]) was 6, the “Velvetleaf plant response rating” value (velvetleaf; [2]) was 6 and the “Velvetleaf plant response rating” value (velvetleaf; [3]) was 8. The “Plant response rating, Cocklebur” value (cocklebur; [1]) was 0, the “Cocklebur plant response rating” value (cocklebur; [2]) was 0 and the “Cocklebur plant response rating” value (cocklebur; [4]) was 0. For the same compound, the “Cocklebur plant response rating” value (cocklebur; [3]) was 3.

`CCOC(CC)n1c(=O)on(C(=O)N(c2ccccc2)C(C)C)c1=O` (stereo not shown) [Compound 773] was tested, and the “Plant response rating, Corn” value (corn; [6]) was 0, the “Corn plant response rating” value (corn; [7]) was 0 and the “Corn plant response rating” value (corn; [8]) was 0. The “Corn plant response rating” value (corn; [9]) was 0, the “Corn plant response rating” value (corn; [10]) was 0 and the “Corn plant response rating” value (corn; [11]) was 0. The “Corn plant response rating” value (corn; [12]) was 0, the “Corn plant response rating” value (corn; [13]) was 0 and the “Plant response rating, Morningglory” value (morningglory; [6]) was 0. For the same compound, the “Morningglory plant response rating” value (morningglory; [7]) was 0, the “Morningglory plant response rating” value (morningglory; [8]) was 0 and the “Morningglory plant response rating” value (morningglory; [10]) was 0. The “Morningglory plant response rating” value (morningglory; [11]) was 0, the “Morningglory plant response rating” value (morningglory; [12]) was 0 and the “Morningglory plant response rating” value (morningglory; [13]) was 0. The “Plant response rating, Wild oats” value (wild oat; [6]) was 0, the “Wild oats plant response rating” value (wild oat; [8]) was 0 and the “Wild oats plant response rating” value (wild oat; [10]) was 0. The “Wild oats plant response rating” value (wild oat; [11]) was 0, the “Wild oats plant response rating” value (wild oat; [12]) was 0 and the “Wild oats plant response rating” value (wild oat; [13]) was 0. The “Plant response rating, Soybean” value (soybean; [6]) was 0, the “Soybean plant response rating” value (soybean; [8]) was 0 and the “Soybean plant response rating” value (soybean; [10]) was 0. The “Soybean plant response rating” value (soybean; [11]) was 0, the “Soybean plant response rating” value (soybean; [12]) was 0 and the “Soybean plant response rating” value (soybean; [13]) was 0. The “Plant response rating, Wheat” value (wheat; [6]) was 0, the “Wheat plant response rating” value (wheat; [8]) was 0 and the “Wheat plant response rating” value (wheat; [10]) was 0. The “Wheat plant response rating” value (wheat; [11]) was 0, the “Wheat plant response rating” value (wheat; [12]) was 0 and the “Wheat plant response rating” value (wheat; [13]) was 0. The “Plant response rating, Rape” value (rape; [6]) was 0, the “Rape plant response rating” value (rape; [7]) was 0 and the “Rape plant response rating” value (rape; [8]) was 0. The “Rape plant response rating” value (rape; [10]) was 0, the “Rape plant response rating” value (rape; [11]) was 0 and the “Rape plant response rating” value (rape; [12]) was 0. The “Rape plant response rating” value (rape; [13]) was 0, the “Plant response rating, Giant foxtail” value (giant foxtail; [6]) was 0 and the “Giant foxtail plant response rating” value (giant foxtail; [7]) was 0. The “Giant foxtail plant response rating” value (giant foxtail; [8]) was 0, the “Giant foxtail plant response rating” value (giant foxtail; [9]) was 0 and the “Giant foxtail plant response rating” value (giant foxtail; [10]) was 0. The “Giant foxtail plant response rating” value (giant foxtail; [11]) was 0, the “Giant foxtail plant response rating” value (giant foxtail; [12]) was 0 and the “Giant foxtail plant response rating” value (giant foxtail; [13]) was 0. For the same compound, the “Plant response rating, Redroot pigweed” value (pigweed; [6]) was 0, the “Redroot pigweed plant response rating” value (pigweed; [7]) was 0 and the “Redroot pigweed plant response rating” value (pigweed; [8]) was 0. For the same compound, the “Redroot pigweed plant response rating” value (pigweed; [10]) was 0, the “Redroot pigweed plant response rating” value (pigweed; [11]) was 0 and the “Redroot pigweed plant response rating” value (pigweed; [12]) was 0. For the same compound, the “Redroot pigweed plant response rating” value (pigweed; [13]) was 0, the “Plant response rating, Crabgrass” value (crabgrass; [6]) was 0 and the “Crabgrass plant response rating” value (crabgrass; [7]) was 0. For the same compound, the “Crabgrass plant response rating” value (crabgrass; [8]) was 0, the “Crabgrass plant response rating” value (crabgrass; [9]) was 0 and the “Crabgrass plant response rating” value (crabgrass; [10]) was 0. For the same compound, the “Crabgrass plant response rating” value (crabgrass; [11]) was 0, the “Crabgrass plant response rating” value (crabgrass; [12]) was 0 and the “Crabgrass plant response rating” value (crabgrass; [13]) was 0. The “Plant response rating, B. signalgrass” value (surinam grass; [6]) was 0, the “B. signalgrass plant response rating” value (surinam grass; [7]) was 0 and the “B. signalgrass plant response rating” value (surinam grass; [9]) was 0. For the same compound, the “B. signalgrass plant response rating” value (surinam grass; Rate 62 g/ha, Preemergence, scale 0 (no effect) to 10 (complete control)) was 0, the “B. signalgrass plant response rating” value (surinam grass; [11]) was 0 and the “B. signalgrass plant response rating” value (surinam grass; [12]) was 0. For the same compound, the “B. signalgrass plant response rating” value (surinam grass; Rate 500 g/ha, Postemergence, scale 0 to 10, 0 is no effect, 10 is complete control) was 0, the “B. signalgrass plant response rating” value (surinam grass; [13]) was 0 and the “Plant response rating, Blackgrass” value (blackgrass; [6]) was 0. The “Blackgrass plant response rating” value (blackgrass; [7]) was 0, the “Blackgrass plant response rating” value (blackgrass; [8]) was 0 and the “Blackgrass plant response rating” value (blackgrass; [9]) was 0. For the same compound, the “Blackgrass plant response rating” value (blackgrass; [10]) was 0, the “Blackgrass plant response rating” value (blackgrass; [11]) was 0 and the “Blackgrass plant response rating” value (blackgrass; [12]) was 0. For the same compound, the “Blackgrass plant response rating” value (blackgrass; [13]) was 0, the “Plant response rating, Sugarbeets” value (sugar beet; [6]) was 0 and the “Sugarbeets plant response rating” value (sugar beet; [8]) was 0. For the same compound, the “Sugarbeets plant response rating” value (sugar beet; [10]) was 0, the “Sugarbeets plant response rating” value (sugar beet; [11]) was 0 and the “Sugarbeets plant response rating” value (sugar beet; [12]) was 0. For the same compound, the “Sugarbeets plant response rating” value (sugar beet; [13]) was 0, the “Plant response rating, Bedstraw” value (bedstraw; [6]) was 0 and the “Bedstraw plant response rating” value (bedstraw; [7]) was 0. The “Bedstraw plant response rating” value (bedstraw; [8]) was 0, the “Bedstraw plant response rating” value (bedstraw; [9]) was 0 and the “Bedstraw plant response rating” value (bedstraw; [10]) was 0. The “Bedstraw plant response rating” value (bedstraw; [11]) was 0, the “Bedstraw plant response rating” value (bedstraw; [12]) was 0 and the “Bedstraw plant response rating” value (bedstraw; [13]) was 0. For the same compound, the “Plant response rating, Nutsedge” value (purple nutsedge; [6]) was 0, the “Nutsedge plant response rating” value (purple nutsedge; [7]) was 0 and the “Nutsedge plant response rating” value (purple nutsedge; [8]) was 0. For the same compound, the “Nutsedge plant response rating” value (purple nutsedge; [10]) was 0, the “Nutsedge plant response rating” value (purple nutsedge; [11]) was 0 and the “Nutsedge plant response rating” value (purple nutsedge; [12]) was 0. For the same compound, the “Nutsedge plant response rating” value (purple nutsedge; [13]) was 0, the “Plant response rating, Velvetleaf” value (velvetleaf; [6]) was 0 and the “Velvetleaf plant response rating” value (velvetleaf; [8]) was 0. For the same compound, the “Velvetleaf plant response rating” value (velvetleaf; [10]) was 0, the “Velvetleaf plant response rating” value (velvetleaf; [11]) was 0 and the “Velvetleaf plant response rating” value (velvetleaf; [12]) was 0. The “Velvetleaf plant response rating” value (velvetleaf; [13]) was 0, the “Plant response rating, Cocklebur” value (cocklebur; [6]) was 0 and the “Cocklebur plant response rating” value (cocklebur; [7]) was 0. The “Cocklebur plant response rating” value (cocklebur; [8]) was 0, the “Cocklebur plant response rating” value (cocklebur; [9]) was 0 and the “Cocklebur plant response rating” value (cocklebur; [10]) was 0. For the same compound, the “Cocklebur plant response rating” value (cocklebur; [11]) was 0, the “Cocklebur plant response rating” value (cocklebur; [12]) was 0 and the “Cocklebur plant response rating” value (cocklebur; [13]) was 0.
